molecular target: Casein kinase II subunit alpha (Homo sapiens, UniProt P68400); test: Inhibition of human CK2alpha (2 to 391 residues) using [33P]-ATP by scintillation counting based radioactive filter binding assay
Sequence (P68400 whole entry, the tested form may be a part): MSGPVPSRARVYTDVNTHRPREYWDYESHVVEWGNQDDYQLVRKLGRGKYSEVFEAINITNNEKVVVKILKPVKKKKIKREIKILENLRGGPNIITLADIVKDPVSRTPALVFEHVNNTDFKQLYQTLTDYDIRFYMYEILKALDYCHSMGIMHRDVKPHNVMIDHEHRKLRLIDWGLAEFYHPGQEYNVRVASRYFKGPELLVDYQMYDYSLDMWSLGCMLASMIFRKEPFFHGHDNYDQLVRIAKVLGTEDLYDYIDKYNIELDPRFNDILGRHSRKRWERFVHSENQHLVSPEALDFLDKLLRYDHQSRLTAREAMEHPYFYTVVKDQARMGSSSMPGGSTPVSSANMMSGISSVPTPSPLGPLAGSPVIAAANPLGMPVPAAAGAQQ

IC50, > 200 µM:
CCc1nnc(-c2cccc(NC(=O)c3n[nH]c4ccccc34)c2)o1
O=C(Nc1ccccc1)c1n[nH]c2ccc([N+](=O)[O-])cc12
O=C(Nc1n[nH]c2cccc(F)c12)c1ccc2c(c1)CCO2
Cc1cc2cc(NC(=O)c3n[nH]c4ccccc34)ccc2[nH]1

Reference: ChEMBL document CHEMBL3822418, “Enriching screening libraries with bioactive fragment space” (Bioorg Med Chem Lett, 2016)
